This is an account of results in patent publication US20240317735A1, “HYDROISOQUINOLINE OR HYDRONAPHTHYRIDINE COMPOUNDS FOR THE TREATMENT OF AUTOIMMUNE DISEASE” (Hoffmann-La Roche Inc., priority 2020, published 2024).

One data set concerns the target T1, human TLR8 (Homo sapiens, UniProt Q9NR97).
T1 construct: host or cells: HEK293 (HEK-Blue hTLR8)
T1 sequence (Q9NR97 27-1041): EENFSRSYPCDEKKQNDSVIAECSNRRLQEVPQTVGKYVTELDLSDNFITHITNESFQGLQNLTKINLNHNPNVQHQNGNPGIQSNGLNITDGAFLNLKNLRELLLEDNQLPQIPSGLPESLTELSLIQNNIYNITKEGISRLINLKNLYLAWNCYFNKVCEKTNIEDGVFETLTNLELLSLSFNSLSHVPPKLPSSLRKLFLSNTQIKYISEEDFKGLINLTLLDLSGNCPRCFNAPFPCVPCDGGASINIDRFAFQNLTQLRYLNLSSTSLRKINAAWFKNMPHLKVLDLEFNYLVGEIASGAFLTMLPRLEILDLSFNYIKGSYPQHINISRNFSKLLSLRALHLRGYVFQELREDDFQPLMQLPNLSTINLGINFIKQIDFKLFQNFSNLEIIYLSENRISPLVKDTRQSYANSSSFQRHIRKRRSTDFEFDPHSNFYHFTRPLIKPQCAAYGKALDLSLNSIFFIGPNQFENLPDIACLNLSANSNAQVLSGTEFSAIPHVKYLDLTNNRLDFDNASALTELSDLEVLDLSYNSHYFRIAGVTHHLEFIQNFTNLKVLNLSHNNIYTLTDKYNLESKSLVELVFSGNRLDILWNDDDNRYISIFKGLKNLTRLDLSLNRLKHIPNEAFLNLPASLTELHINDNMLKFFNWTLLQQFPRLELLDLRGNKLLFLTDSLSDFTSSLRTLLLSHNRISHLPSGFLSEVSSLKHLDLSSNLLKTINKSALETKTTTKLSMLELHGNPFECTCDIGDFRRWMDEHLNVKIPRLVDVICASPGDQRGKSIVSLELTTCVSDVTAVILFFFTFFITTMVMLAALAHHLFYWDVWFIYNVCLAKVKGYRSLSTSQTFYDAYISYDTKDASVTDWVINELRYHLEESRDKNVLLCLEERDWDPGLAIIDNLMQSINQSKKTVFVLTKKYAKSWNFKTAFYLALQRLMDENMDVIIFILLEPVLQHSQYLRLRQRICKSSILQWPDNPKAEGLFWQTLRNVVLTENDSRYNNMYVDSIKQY
Kind of data set: HEK293-Blue-hTLR-8 cells assay (SEAP reporter, R848 stimulation). Type of data set: cell-based. As to conditions: HEK293-Blue-hTLR8 cells, R848, 20 hrs; read-out: HEK/hTLR8 IC50. The gist of the method: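 HEK293-Blue hTLR8 cells with NF-κB/AP-1-driven SEAP reporter incubated 20 h at 37 °C with serially diluted compound (1% DMSO) and R848 stimulus (60 μM stock). Supernatant SEAP measured with QUANTI-Blue (2 h, 37 °C) by absorbance at 620–655 nm; antagonism read as reduced reporter signal.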

The target of a further data set is T2, hERG channel (Homo sapiens, UniProt Q12809).
T2 construct: expressed in transfected cells; host or cells: CHO (CHOhERG)
T2 sequence (Q12809 whole entry): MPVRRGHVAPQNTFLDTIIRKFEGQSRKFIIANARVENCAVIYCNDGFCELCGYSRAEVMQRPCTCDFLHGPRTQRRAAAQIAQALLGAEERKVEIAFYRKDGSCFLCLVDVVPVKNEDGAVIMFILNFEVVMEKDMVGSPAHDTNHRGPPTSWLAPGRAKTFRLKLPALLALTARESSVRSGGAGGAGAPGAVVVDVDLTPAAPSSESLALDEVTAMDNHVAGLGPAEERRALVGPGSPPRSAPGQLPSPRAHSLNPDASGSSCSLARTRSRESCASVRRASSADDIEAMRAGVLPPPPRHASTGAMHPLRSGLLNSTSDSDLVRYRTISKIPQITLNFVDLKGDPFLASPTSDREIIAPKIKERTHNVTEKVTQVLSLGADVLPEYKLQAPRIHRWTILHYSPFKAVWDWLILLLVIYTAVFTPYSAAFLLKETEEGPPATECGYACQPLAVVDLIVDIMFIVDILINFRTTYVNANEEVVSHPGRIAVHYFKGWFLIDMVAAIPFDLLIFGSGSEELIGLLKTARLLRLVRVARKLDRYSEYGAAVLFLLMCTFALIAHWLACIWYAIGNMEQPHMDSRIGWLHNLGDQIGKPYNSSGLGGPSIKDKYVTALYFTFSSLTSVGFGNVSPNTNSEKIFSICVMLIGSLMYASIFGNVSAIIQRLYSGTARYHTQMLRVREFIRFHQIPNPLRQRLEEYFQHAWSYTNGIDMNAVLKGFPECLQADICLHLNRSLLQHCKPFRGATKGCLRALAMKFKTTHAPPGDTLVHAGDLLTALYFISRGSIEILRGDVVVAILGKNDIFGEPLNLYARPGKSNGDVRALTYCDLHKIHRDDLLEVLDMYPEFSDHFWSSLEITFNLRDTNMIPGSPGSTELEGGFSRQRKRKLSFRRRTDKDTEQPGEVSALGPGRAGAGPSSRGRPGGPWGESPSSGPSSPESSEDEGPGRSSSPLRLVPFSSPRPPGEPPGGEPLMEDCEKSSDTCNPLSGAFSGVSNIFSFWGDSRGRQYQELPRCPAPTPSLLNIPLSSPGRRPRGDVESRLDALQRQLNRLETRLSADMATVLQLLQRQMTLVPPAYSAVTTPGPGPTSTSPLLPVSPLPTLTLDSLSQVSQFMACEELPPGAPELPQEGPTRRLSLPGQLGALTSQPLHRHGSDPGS
Put plainly: hERG channel inhibition assay (patch-clamp, CHOhERG cells). As to conditions: for IC50 / IC20: CHOhERG cells, whole-cell patch-clamp; for IC20: human, CHO cells stably expressing hERG (CHOhERG); for hERG IC20/TLR7 IC50 / hERG IC20/TLR8 IC50 / hERG IC20/TLR9 IC50: safety ratio; for hERG IC20/TLR7 IC50: hERG IC20 over HEK/hTLR7 IC50; for hERG IC20/TLR8 IC50: hERG IC20 over HEK/hTLR8 IC50; for hERG IC20/TLR9 IC50: hERG IC20 over HEK/hTLR9 IC50. Type of data set: cell-based. As to the method: The hERG K^+ channels were cloned in humans and stably expressed in a CHO (Chinese hamster ovary) cell line. CHOhERG cells were used for patch-clamp (voltage-clamp, whole-cell) experiments. Cells were stimulated by a voltage pattern to activate hERG channels and conduct IKhERG currents (rapid delayed outward rectifier potassium current of the hERG channel). After the cells were stabilized for a few minutes, the amplitude and kinetics of IKhERG were recorded at a stimulation frequency of 0.1 Hz (6 bpm). Thereafter, the test compound was added to the preparation at increasing concentrations. For each concentration, an attempt was made to reach a steady-state effect, usually, this was achieved within 3-10 min at which time the next highest concentration was applied. The amplitude and kinetics of IKhERG are recorded in each concentration of the drug which were compared to the control values (taken as 100%). (references: Redfern W S, Carlsson L, Davis A S, Lynch W G, MacKenzie I, Palethorpe S, Siegl P K, Strang I, Sullivan A T, Wallis R, Camm A J, Hammond T G. 2003; Relationships between preclinical cardiac electrophysiology, clinical QT interval prolongation and torsade de pointes for a broad range of drugs: evidence for a provisional safety margin in drug development. Cardiovasc. Res. 58:32-45, Sanguinetti MC, Tristani-Firouzi M. 2006; hERG potassium channels and cardiac arrhythmia. Nature 440:463-469, Webster R, Leishman D, Walker D. 2002; Towards a drug concentration effect relationship for QT prolongation and torsades de pointes. Curr. Opin. Drug Discov. Devel. 5:116-26).

Where only a bound is given, the exact number is not on record here.

For `C[C@H]1CN(c2ccnc3c2cnn3C)Cc2ccc(O[C@@H]3C[C@H]4CNCCN4C3)cc21` [Example 42, (4R)-4-methyl-2-(1-methylpyrazolo[3,4-b]pyridin-4-yl)-6-[[(7R,8aS)-1,2,3,4,6,7,8,8a-octahydropyrrolo[1,2-a]pyrazin-7-yl]oxy]-3,4-dihydro-1H-isoquinoline], the IC50 on human TLR8 was 0.002 µM. On hERG channel, the IC50 is over 20 µM, the IC20 is over 10 µM, the “hERG IC20/TLR7 IC50” value was over 3333.3 and the “hERG IC20/TLR8 IC50” value is given as over 5000.0. The “hERG IC20/TLR9 IC50” value on hERG channel is reported as over 25.1.

As for `C[C@H]1CN(c2ccnc3c2cnn3C)Cc2ccc(OC[C@@H]3CNCCN3C)cc21` [Example 44, (4R)-4-methyl-2-(1-methylpyrazolo[3,4-b]pyridin-4-yl)-6-[[(2S)-1-methylpiperazin-2-yl]methoxy]-3,4-dihydro-1H-isoquinoline], the IC50 at human TLR8 stood at 0.005 µM. Also, on hERG channel, the IC50 is over 20 µM, the IC20 was over 10 µM, the “hERG IC20/TLR7 IC50” value is over 666.7 and the “hERG IC20/TLR8 IC50” value is over 2000.0. Besides, the “hERG IC20/TLR9 IC50” value at hERG channel is listed as over 42.7.

For the molecule `CO[C@H]1CN(c2cc3c(cn2)CN(c2cc(C)nc4c2cnn4C)C[C@@H]3C)CC[C@@H]1N` [Example 73, (3S,4S)-3-methoxy-1-[(5R)-7-(1,6-dimethylpyrazolo[3,4-b]pyridin-4-yl)-5-methyl-6,8-dihydro-5H-2,7-naphthyridin-3-yl]piperidin-4-amine], the IC50 on human TLR8 came out at 0.002 µM. For the same molecule, at hERG channel, the IC50 was over 20 µM, the IC20 turned out to be 6.9 µM, the “hERG IC20/TLR7 IC50” value worked out at 1725.0 and the “hERG IC20/TLR8 IC50” value came to 3450.0. The “hERG IC20/TLR9 IC50” value on hERG channel came out at 60.0.

For the molecule `Cc1cc(N2Cc3cnc(O[C@@H]4C[C@H]5CNCCN5C4)cc3[C@@H](C)C2)c2cnn(C)c2n1` [Example 76, (4R)-2-(1,6-dimethylpyrazolo[3,4-b]pyridin-4-yl)-4-methyl-6-[[(7R,8aS)-1,2,3,4,6,7,8,8a-octahydropyrrolo[1,2-a]pyrazin-7-yl]oxy]-3,4-dihydro-1H-2,7-naphthyridine], the IC50 at human TLR8 was determined as 0.016 µM. Moreover, on hERG channel, the IC50 was over 20 µM, the IC20 was over 10 µM, the “hERG IC20/TLR7 IC50” value was over 526.3 and the “hERG IC20/TLR8 IC50” value was over 625.0. On hERG channel, the “hERG IC20/TLR9 IC50” value is reported as over 69.4.

Consider `Cc1cc(N2Cc3cnc(OCCN4CCNCC4)cc3[C@@H](C)C2)c2cnn(C)c2n1` [Example 77, (4R)-2-(1,6-dimethylpyrazolo[3,4-b]pyridin-4-yl)-4-methyl-6-(2-piperazin-1-ylethoxy)-3,4-dihydro-1H-2,7-naphthyridine], for which the IC50 on human TLR8 worked out at 0.016 µM. Moreover, at hERG channel, the IC50 was over 20 µM, the IC20 is over 10 µM, the “hERG IC20/TLR7 IC50” value was over 526.3 and the “hERG IC20/TLR8 IC50” value was over 625.0. Also, the “hERG IC20/TLR9 IC50” value on hERG channel is reported as over 69.4.

In the case of `Cc1cc(N2Cc3cnc(N4CC[C@@H](N)[C@H](F)C4)cc3[C@@H](C)C2)c2cnn(C)c2n1` [Example 80, (3R,4R)-3-fluoro-1-[(5R)-7-(1,6-dimethylpyrazolo[3,4-b]pyridin-4-yl)-5-methyl-6,8-dihydro-5H-2,7-naphthyridin-3-yl]piperidin-4-amine], the IC50 at human TLR8 was determined as 0.034 µM. Besides, on hERG channel, the IC50 was over 20 µM, the IC20 was over 10 µM, the “hERG IC20/TLR7 IC50” value is over 833.3 and the “hERG IC20/TLR8 IC50” value is listed as over 294.1. Besides, the “hERG IC20/TLR9 IC50” value at hERG channel was over 137.0.
